Assay results: patent publication US12208092B2, “Compositions and methods for administering paltusotine to patients with hepatic impairment” (CRINETICS PHARMACEUTICALS, INC., priority 2023, dated 2025)

Experiment: Phase 1 hepatic impairment study, safety (TEAEs) after single oral 20 mg tablet
[1] = normal hepatic function (N = 14)
[2] = severe hepatic impairment (N = 6)

Experimental: The secondary objective of the study was to assess the safety and tolerability of a single dose of paltusotine in subjects with varying degrees of hepatic impairment.
Safety and tolerability were assessed by the following endpoints: reported adverse events (AEs), clinical laboratory test results (hematology, coagulation, serum chemistry, and urinalysis), vital sign measurements, and 12-lead electrocardiogram results
All 36 subjects who were enrolled in the study received all planned single doses of paltusotine 20 mg (1×20 mg tablet) and were included in the safety and PK analysis populations.

N#Cc1cccc(-c2ccc3ncc(-c4cc(F)cc(F)c4)c(N4CCC(N)CC4)c3c2)c1O [paltusotine, 3-[4-(4-amino-1-piperidyl)-3-(3,5-difluorophenyl)-6-quinolyl]-2-hydroxybenzonitrile]
TEAE SOC Gastrointestinal disorders, number of occurrences [1]: 5 | TEAE SOC Gastrointestinal disorders, subjects n (%) [1]: 4 (28.6%) | TEAE SOC General disorders and administration site conditions, subjects n (%) [1]: 0 | TEAE SOC Infections and infestations, subjects n (%) [1]: 0 | TEAE SOC Nervous system disorders, number of occurrences [1]: 1 | TEAE SOC Nervous system disorders, subjects n (%) [1]: 1 (7.1%) | TEAE SOC Renal and urinary disorders, subjects n (%) [1]: 0 | TEAEs Not Related to study drug (strongest relationship), subjects n (%) [1]: 1 (7.1%) | TEAEs Not Related to study drug, number of occurrences [1]: 1 | TEAEs Related to study drug (strongest relationship), subjects n (%) [1]: 3 (21.4%) | TEAEs Related to study drug, number of occurrences [1]: 5 | TEAEs by maximum severity: Mild, number of occurrences [1]: 5 | TEAEs by maximum severity: Mild, subjects n (%) [1]: 3 (21.4%) | TEAEs by maximum severity: Moderate, number of occurrences [1]: 1 | TEAEs by maximum severity: Moderate, subjects n (%) [1]: 1 (7.1%) | TEAEs by maximum severity: Severe, subjects n (%) [1]: 0 | Total number of SAEs reported [1]: 0 | Total number of TEAEs reported [1]: 6 | Any SAEs, number of occurrences (overall (N = 36)): 1 | Any TEAE, number of occurrences (overall (N = 36)): 17 | Related TEAE Abdominal discomfort, number of occurrences (overall (N = 36)): 1 | Related TEAE Abdominal discomfort, subjects n (%) (overall (N = 36)): 1 (2.8%) | Related TEAE Diarrhea, number of occurrences (overall (N = 36)): 5 | Related TEAE Diarrhea, subjects n (%) (overall (N = 36)): 5 (13.9%) | Related TEAE Epigastric discomfort, number of occurrences (overall (N = 36)): 1 | Related TEAE Epigastric discomfort, subjects n (%) (overall (N = 36)): 1 (2.8%) | Related TEAE Fatigue, number of occurrences (overall (N = 36)): 1 | Related TEAE Fatigue, subjects n (%) (overall (N = 36)): 1 (2.8%) | Related TEAE Haematuria, number of occurrences (overall (N = 36)): 1 | Related TEAE Haematuria, subjects n (%) (overall (N = 36)): 1 (2.8%) | Related TEAE Headache, number of occurrences (overall (N = 36)): 1 | Related TEAE Headache, subjects n (%) (overall (N = 36)): 1 (2.8%) | Related TEAE Neutropenia, number of occurrences (overall (N = 36)): 1 | Related TEAE Neutropenia, subjects n (%) (overall (N = 36)): 1 (2.8%) | Related TEAE Pain, number of occurrences (overall (N = 36)): 1 | Related TEAE Pain, subjects n (%) (overall (N = 36)): 1 (2.8%) | Related TEAE Paraesthesia, number of occurrences (overall (N = 36)): 1 | Related TEAE Paraesthesia, subjects n (%) (overall (N = 36)): 1 (2.8%) | SAEs Not related to study drug (strongest relationship), subjects n (%) (overall (N = 36)): 1 (2.8%) | SAEs Not related to study drug, number of occurrences (overall (N = 36)): 1 | SAEs Related to study drug (strongest relationship), subjects (overall (N = 36)): 0 | Subjects reporting any SAEs, subjects n (%) (overall (N = 36)): 1 (2.8%) | TEAE Abdominal discomfort, number of occurrences (overall (N = 36)): 1 | TEAE Abdominal discomfort, subjects n (%) (overall (N = 36)): 1 (2.8%) | TEAE COVID-19, number of occurrences (overall (N = 36)): 1 | TEAE COVID-19, subjects n (%) (overall (N = 36)): 1 (2.8%) | TEAE Death, number of occurrences (overall (N = 36)): 1 | TEAE Death, subjects n (%) (overall (N = 36)): 1 (2.8%) | TEAE Diarrhea, number of occurrences (overall (N = 36)): 6 | TEAE Diarrhea, subjects n (%) (overall (N = 36)): 6 (16.7%) | TEAE Epigastric discomfort, number of occurrences (overall (N = 36)): 1 | TEAE Epigastric discomfort, subjects n (%) (overall (N = 36)): 1 (2.8%) | TEAE Fatigue, number of occurrences (overall (N = 36)): 1 | TEAE Fatigue, subjects n (%) (overall (N = 36)): 1 (2.8%) | TEAE Haematuria, number of occurrences (overall (N = 36)): 1 | TEAE Haematuria, subjects n (%) (overall (N = 36)): 1 (2.8%) | TEAE Headache, number of occurrences (overall (N = 36)): 2 | TEAE Headache, subjects n (%) (overall (N = 36)): 2 (5.6%) | TEAE Neutropenia, number of occurrences (overall (N = 36)): 1 | TEAE Neutropenia, subjects n (%) (overall (N = 36)): 1 (2.8%) | TEAE Pain, number of occurrences (overall (N = 36)): 1 | TEAE Pain, subjects n (%) (overall (N = 36)): 1 (2.8%) | TEAE Paraesthesia, number of occurrences (overall (N = 36)): 1 | TEAE Paraesthesia, subjects n (%) (overall (N = 36)): 1 (2.8%) | TEAE SOC Blood and lymphatic system disorders, number of occurrences (overall (N = 36)): 1 | TEAE SOC Blood and lymphatic system disorders, subjects n (%) (overall (N = 36)): 1 (2.8%) | TEAE SOC Gastrointestinal disorders, number of occurrences (overall (N = 36)): 8 | TEAE SOC Gastrointestinal disorders, subjects n (%) (overall (N = 36)): 7 (19.4%) | TEAE SOC General disorders and administration site conditions, number of occurrences (overall (N = 36)): 3 | TEAE SOC General disorders and administration site conditions, subjects n (%) (overall (N = 36)): 2 (5.6%) | TEAE SOC Infections and infestations, number of occurrences (overall (N = 36)): 1 | TEAE SOC Infections and infestations, subjects n (%) (overall (N = 36)): 1 (2.8%) | TEAE SOC Nervous system disorders, number of occurrences (overall (N = 36)): 3 | TEAE SOC Nervous system disorders, subjects n (%) (overall (N = 36)): 3 (8.3%) | TEAE SOC Renal and urinary disorders, number of occurrences (overall (N = 36)): 1 | TEAE SOC Renal and urinary disorders, subjects n (%) (overall (N = 36)): 1 (2.8%) | TEAEs Not Related to study drug (strongest relationship), subjects n (%) (overall (N = 36)): 1 (2.8%) | TEAEs Not Related to study drug, number of occurrences (overall (N = 36)): 4 | TEAEs Related to study drug, number of occurrences (overall (N = 36)): 13 | TEAEs by maximum severity: Mild, number of occurrences (overall (N = 36)): 12 | TEAEs by maximum severity: Mild, subjects n (%) (overall (N = 36)): 6 (16.7%) | TEAEs by maximum severity: Moderate, number of occurrences (overall (N = 36)): 4 | TEAEs by maximum severity: Moderate, subjects n (%) (overall (N = 36)): 3 (8.3%) | TEAEs by maximum severity: Severe, number of occurrences (overall (N = 36)): 1 | TEAEs by maximum severity: Severe, subjects n (%) (overall (N = 36)): 1 (2.8%) | Total number of SAEs reported (overall (N = 36)): 1 | Total number of TEAEs reported (overall (N = 36)): 17 | Any TEAE, number of occurrences [2]: 4 | Related TEAE Abdominal discomfort, subjects n (%) [2]: 0 | Related TEAE Diarrhea, number of occurrences [2]: 1 | Related TEAE Diarrhea, subjects n (%) [2]: 1 (16.7%) | Related TEAE Epigastric discomfort, subjects n (%) [2]: 0 | Related TEAE Fatigue, subjects n (%) [2]: 0 | Related TEAE Haematuria, subjects n (%) [2]: 0 | Related TEAE Headache, subjects n (%) [2]: 0 | Related TEAE Neutropenia, number of occurrences [2]: 1 | Related TEAE Neutropenia, subjects n (%) [2]: 1 (16.7%) | Related TEAE Pain, subjects n (%) [2]: 0 | Related TEAE Paraesthesia, subjects n (%) [2]: 0 | SAEs Not related to study drug (strongest relationship), subjects n (%) [2]: 0 | SAEs Related to study drug (strongest relationship), subjects [2]: 0 | Subjects reporting any SAEs, subjects n (%) [2]: 0 | Subjects reporting any TEAE, subjects n (%) [2]: 2 (33.3%) | TEAE Abdominal discomfort, subjects n (%) [2]: 0 | TEAE COVID-19, number of occurrences [2]: 1 | TEAE COVID-19, subjects n (%) [2]: 1 (16.7%) | TEAE Death, subjects n (%) [2]: 0 | TEAE Diarrhea, number of occurrences [2]: 1 | TEAE Diarrhea, subjects n (%) [2]: 1 (16.7%) | TEAE Epigastric discomfort, subjects n (%) [2]: 0 | TEAE Fatigue, subjects n (%) [2]: 0 | TEAE Haematuria, subjects n (%) [2]: 0 | TEAE Headache, number of occurrences [2]: 1 | TEAE Headache, subjects n (%) [2]: 1 (16.7%) | TEAE Neutropenia, number of occurrences [2]: 1 | TEAE Neutropenia, subjects n (%) [2]: 1 (16.7%) | TEAE Pain, subjects n (%) [2]: 0 | TEAE Paraesthesia, subjects n (%) [2]: 0 | TEAE SOC Blood and lymphatic system disorders, number of occurrences [2]: 1 | TEAE SOC Blood and lymphatic system disorders, subjects n (%) [2]: 1 (16.7%) | TEAE SOC Gastrointestinal disorders, number of occurrences [2]: 1 | TEAE SOC Gastrointestinal disorders, subjects n (%) [2]: 1 (16.7%) | TEAE SOC General disorders and administration site conditions, subjects n (%) [2]: 0 | TEAE SOC Infections and infestations, number of occurrences [2]: 1 | TEAE SOC Infections and infestations, subjects n (%) [2]: 1 (16.7%) | TEAE SOC Nervous system disorders, number of occurrences [2]: 1 | TEAE SOC Nervous system disorders, subjects n (%) [2]: 1 (16.7%) | TEAE SOC Renal and urinary disorders, subjects n (%) [2]: 0 | TEAEs Not Related to study drug (strongest relationship), subjects n (%) [2]: 0 | TEAEs Related to study drug (strongest relationship), subjects n (%) [2]: 2 (33.3%) | TEAEs Related to study drug, number of occurrences [2]: 2 | TEAEs by maximum severity: Mild, number of occurrences [2]: 2 | TEAEs by maximum severity: Mild, subjects n (%) [2]: 1 (16.7%) | TEAEs by maximum severity: Moderate, number of occurrences [2]: 2 | TEAEs by maximum severity: Moderate, subjects n (%) [2]: 1 (16.7%) | TEAEs by maximum severity: Severe, subjects n (%) [2]: 0 | Total number of SAEs reported [2]: 0 | Total number of TEAEs reported [2]: 4
